Molecular target: T1, human CB2R (Homo sapiens, UniProt P34972)
T1 construct: host or cells: CHO cells
Assay: CB2R mediated modulation of cAMP synthesis
Format: cell-based
Conditions: for agonistic activity: found through the use of the described assays (CB2 agonists), qualitative statement; for Emax: 0.5 h, CHO cells expressing human CB2R, cAMP inhibited by 1 uM CP55940 defined as 100%, read-out: Agonist Efficacy (%); for EC50: read-out: hCB2 cAMP EC50
Method in brief: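 CHO cells expressing human CB2R treated with compound 30 min at 37 °C in buffer with 1 mM IBMX, 0.25% BSA and 10 uM forskolin. cAMP measured after lysis by DiscoverX-XS kit.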

T1 sequence (P34972 whole entry): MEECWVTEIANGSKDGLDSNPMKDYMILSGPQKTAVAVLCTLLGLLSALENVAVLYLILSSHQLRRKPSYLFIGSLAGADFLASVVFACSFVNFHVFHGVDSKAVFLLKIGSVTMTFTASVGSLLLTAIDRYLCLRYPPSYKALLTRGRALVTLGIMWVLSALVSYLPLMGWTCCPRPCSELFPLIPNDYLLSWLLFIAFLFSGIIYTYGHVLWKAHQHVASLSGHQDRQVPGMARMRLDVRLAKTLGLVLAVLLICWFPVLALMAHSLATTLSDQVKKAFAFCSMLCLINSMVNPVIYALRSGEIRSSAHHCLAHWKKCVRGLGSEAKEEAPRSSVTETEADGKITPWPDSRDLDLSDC

Compound | agonistic activity | Emax [%] | EC50 [µM]
Cc1sc(NC(=O)N2CCCN(C(=O)C3CCOCC3)CC2)nc1C(C)(C)C [4-(Tetrahydro-pyran-4-carbonyl)-[1,4]diazepane-1-carboxylic acid (4-tert-butyl-5-methyl-thiazol-2-yl)-amide] | agonistic activity | – | –
CCC(C)c1ccc(NC(=O)N2CCCN(C(=O)C3CCOCC3)CC2)nc1 (stereo not shown) [Compound 196, 4-(Tetrahydro-pyran-4-carbonyl)-[1,4]diazepane-1-carboxylic acid (5-sec-butyl-pyridin-2-yl)-amide] | – | 77 | 0.047
CCC(C)c1ccc(NC(=O)N2CCCN(C(=O)c3ccccn3)CC2)cc1 (stereo not shown) [4-(Pyridine-2-carbonyl)-[1,4]diazepane-1-carboxylic acid (4-sec-butyl-phenyl)-amide] | agonistic activity | – | –
O=C(CC1CCCC1)N1CCCN(C(=O)Nc2ccc(OC(F)(F)F)cc2)CC1 [4-(2-Cyclopentyl-acetyl)-[1,4]diazepane-1-carboxylic acid (4-trifluoromethoxy-phenyl)-amide] | agonistic activity | – | –
CC(C)(C)c1cc(NC(=O)N2CCCN(C(=O)c3ccc(C(F)(F)F)cc3)CC2)no1 [4-(4-Trifluoromethyl-benzoyl)-[1,4]diazepane-1-carboxylic acid (5-tert-butyl-isoxazol-3-yl)-amide] | agonistic activity | – | –
CCCCCc1ccc(NC(=O)N2CCCN(C(=O)CC3CCOCC3)CC2)cc1 [4-(2-Tetrahydro-pyran-4-yl-acetyl)-[1,4]diazepane-1-carboxylic acid (4-pentyl-phenyl)-amide] | agonistic activity | – | –
CC(C)(C)c1ccc(NC(=O)N2CCCN(C(=O)CN3CCCCC3)CC2)cc1 [4-(2-Piperidin-1-yl-acetyl)-[1,4]diazepane-1-carboxylic acid (4-tert-butyl-phenyl)-amide] | agonistic activity | – | –
CC(C)(C)c1cc(NC(=O)N2CCCN(C(=O)N3CCS(=O)(=O)CC3)CC2)on1 [Compound 211, 4-(1,1-Dioxo-1 λ^6-thiomorpholine-4-carbonyl)-[1,4]diazepane-1-carboxylic acid (3-tert-butyl-isoxazol-5-yl)-amide] | – | 100 | 0.095
CN(C)c1ccc(C(=O)N2CCCN(C(=O)Nc3ccc4ccccc4c3)CC2)cc1 [4-(4-Dimethylamino-benzoyl)-[1,4]diazepane-1-carboxylic acid naphthalen-2-ylamide] | agonistic activity | – | –
CC(C)c1ccc(NC(=O)N2CCCN(C(=O)CCC(F)(F)F)CC2)cc1 [4-(4,4,4-Trifluoro-butyryl)-[1,4]diazepane-1-carboxylic acid (4-isopropyl-phenyl)-amide] | agonistic activity | – | –
CC(C)(C)c1cc(NC(=O)N2CCCN(C(=O)C3CCCC3)CC2)no1 [4-Cyclopentanecarbonyl-[1,4]diazepane-1-carboxylic acid (5-tert-butyl-isoxazol-3-yl)-amide] | agonistic activity | – | –
CCC(C)c1ccc(NC(=O)N2CCCN(C(=O)N3CCOCC3)CC2)cc1 (stereo not shown) [Compound 218, 4-(Morpholine-4-carbonyl)-[1,4]diazepane-1-carboxylic acid (4-sec-butyl-phenyl)-amide] | – | 82 | 0.02
Cc1nc(NC(=O)N2CCCN(C(=O)C3CCOCC3)CC2)sc1C(C)(C)C [4-(Tetrahydro-pyran-4-carbonyl)-[1,4]diazepane-1-carboxylic acid (5-tert-butyl-4-methyl-thiazol-2-yl)-amide] | agonistic activity | – | –
CC(C)(C)c1csc(NC(=O)N2CCCN(C(=O)C3CCOCC3)CC2)n1 [4-(Tetrahydro-pyran-4-carbonyl)-[1,4]diazepane-1-carboxylic acid (4-tert-butyl-thiazol-2-yl)-amide] | agonistic activity | – | –
CC(C)(C)c1ccc(NC(=O)N2CCCN(C(=O)CC3CCCCC3)CC2)cc1 [4-(2-Cyclohexyl-acetyl)-[1,4]diazepane-1-carboxylic acid (4-tert-butyl-phenyl)-amide] | agonistic activity | – | –
CCc1ccc(NC(=O)N2CCCN(C(=O)CC3CCOCC3)CC2)cc1 [4-(2-Tetrahydro-pyran-4-yl-acetyl)-[1,4]diazepane-1-carboxylic acid (4-ethyl-phenyl)-amide] | agonistic activity | – | –
O=C(CCC1CCCC1)N1CCCN(C(=O)NC2CCCCC2)CC1 [4-(3-Cyclopentyl-propionyl)-[1,4]diazepane-1-carboxylic acid cyclohexylamide] | agonistic activity | – | –
CC(C)(C)c1cc(NC(=O)N2CCCN(C(=O)CN3CCC(F)(F)CC3)CC2)no1 [4-[2-(4,4-Difluoro-piperidin-1-yl)-acetyl]-[1,4]diazepane-1-carboxylic acid (5-tert-butyl-isoxazol-3-yl)-amide] | agonistic activity | – | –
CCCCc1ccc(NC(=O)N2CCCN(C(=O)CCC3CC3)CC2)cc1 [4-(3-Cyclopropyl-propionyl)-[1,4]diazepane-1-carboxylic acid (4-butyl-phenyl)-amide] | agonistic activity | – | –
CC(C)CCC(=O)N1CCCN(C(=O)Nc2ccc3ccccc3c2)CC1 [Compound 94, 4-(4-Methyl-pentanoyl)-[1,4]diazepane-1-carboxylic acid naphthalen-2-ylamide] | – | 98 | 0.089
O=C(Nc1ccc2ccccc2c1)N1CCCN(C(=O)c2ccc(Cl)c(Cl)c2)CC1 [4-(3,4-Dichloro-benzoyl)-[1,4]diazepane-1-carboxylic acid naphthalen-2-ylamide] | agonistic activity | – | –
Cc1onc(NC(=O)N2CCCN(C(=O)C3CCOCC3)CC2)c1C | agonistic activity | – | –
CC(C)(C)c1cccc(NC(=O)N2CCCN(C(=O)N3CCS(=O)(=O)CC3)CC2)c1 [4-(1,1-Dioxo-1λ^6-thiomorpholine-4-carbonyl)-[1,4]diazepane-1-carboxylic acid (3-tert-butyl-phenyl)-amide] | agonistic activity | – | –
CC(C)(C)C(=O)N1CCCN(C(=O)Nc2ccc3ccccc3c2)CC1 [4-(2,2-Dimethyl-propionyl)-[1,4]diazepane-1-carboxylic acid naphthalen-2-ylamide] | agonistic activity | – | –
O=C(Nc1ccc(C(F)(F)F)cc1)N1CCCN(C(=O)c2ccc(C(F)(F)F)cc2)CC1 [Compound 127, 4-(4-Trifluoromethyl-benzoyl)-[1,4]diazepane-1-carboxylic acid (4-trifluomethyl-phenyl)-amide] | – | 100 | 0.075
CC(C)(C)c1ccc(NC(=O)N2CCCN(C(=O)CCC3CCCCC3)CC2)cc1 [Compound 108, 4-(3-Cyclohexyl-propionyl)-[1,4]diazepane-1-carboxylic acid (4-tert-butyl-phenyl)-amide] | – | 96 | 0.021
CSc1ccc(NC(=O)N2CCCN(C(=O)CC3CCCC3)CC2)cc1 [4-(2-Cyclopentyl-acetyl)-[1,4]diazepane-1-carboxylic acid (4-methylsulfanyl-phenyl)-amide] | agonistic activity | – | –
O=C(CC1CCCC1)N1CCCN(C(=O)Nc2ccc3c(c2)OC(F)(F)O3)CC1 [4-(2-Cyclopentyl-acetyl)-[1,4]diazepane-1-carboxylic acid (2,2-difluoro-benzo[1,3]dioxol-5-yl)-amide] | agonistic activity | – | –
